Laboratory results from ChEMBL document CHEMBL3885881, “DrugMatrix”.

Species: Rattus norvegicus
Assay: DrugMatrix - Regimen: Daily Repeat
Type: toxicity, organism-based, Sprague-Dawley
Parameters: regimen Daily Repeat, gender Male, age 6-8 weeks
Details: in vivo, po, route oral GAVAGE, vehicle 100 % WATER; for ABSOLUTE BASOPHIL / ABSOLUTE EOSINOPHIL / ABSOLUTE LYMPHOCYTE / ABSOLUTE MONOCYTE / ABSOLUTE SEGMENTED NEUTROPHIL / BASOPHIL / EOSINOPHIL / ERYTHROCYTE COUNT / HEMATOCRIT / HEMOGLOBIN / LEUKOCYTE COUNT / LYMPHOCYTE / MEAN CORPUSCULAR HEMOGLOBIN / MEAN CORPUSCULAR HEMOGLOBIN CONCENTRATION / MEAN CORPUSCULAR VOLUME / MONOCYTE / NEUTROPHIL / NUCLEATED RED BLOOD CELLS / PLATELET COUNT: tissue Blood; for ALANINE AMINOTRANSFERASE / ALBUMIN / ALKALINE PHOSPHATASE / ASPARTATE AMINOTRANSFERASE / BLOOD UREA NITROGEN / CARBON DIOXIDE / CHLORIDE / CHOLESTEROL / CREATINE PHOSPHOKINASE / CREATININE / GLUCOSE / LACTATE DEHYDROGENASE / LIPASE / PHOSPHORUS / POTASSIUM / SODIUM / TOTAL BILIRUBIN / TOTAL PROTEIN / URIC ACID: tissue Plasma
[1] = 0 mg/kg, 72 h, dose level Control, time 3 day
[2] = 0 mg/kg, 120 h, dose level Control, time 5 day
[3] = 1 mg/kg, 72 h, dose level Low, time 3 day

CN1C2CCCC1CC(NC(=O)c1nn(C)c3ccccc13)C2 (centres undefined) [GRANISETRON]
ABSOLUTE BASOPHIL [1]: 0 CELLS/uL
ABSOLUTE EOSINOPHIL [1]: 0 CELLS/uL
ABSOLUTE LYMPHOCYTE [1]: 8482.5 CELLS/uL
ABSOLUTE MONOCYTE [1]: 63.83 CELLS/uL
ABSOLUTE SEGMENTED NEUTROPHIL [1]: 887 CELLS/uL
BASOPHIL [1]: 0%
EOSINOPHIL [1]: 0%
ERYTHROCYTE COUNT [1]: 5.49 x10E6/uL
HEMATOCRIT [1]: 34.5%
HEMOGLOBIN [1]: 13.33 G/DL
LEUKOCYTE COUNT [1]: 9.43 x10E3/uL
LYMPHOCYTE [1]: 90.17%
MEAN CORPUSCULAR HEMOGLOBIN [1]: 24.3 pg
MEAN CORPUSCULAR HEMOGLOBIN CONCENTRATION [1]: 38.63 G/DL
MEAN CORPUSCULAR VOLUME [1]: 62.88 fL
MONOCYTE [1]: 0.67%
NEUTROPHIL [1]: 9.17%
NUCLEATED RED BLOOD CELLS [1]: 0.67 /100WBC
PLATELET COUNT [1]: 1022.83 x10E3/uL
ALANINE AMINOTRANSFERASE [1]: 50.5 u/L
ALBUMIN [1]: 4.08 G/DL
ALKALINE PHOSPHATASE [1]: 368.33 u/L
ASPARTATE AMINOTRANSFERASE [1]: 87.5 u/L
BLOOD UREA NITROGEN [1]: 12.83 mg/dL
CARBON DIOXIDE [1]: 32.83 mmol/L
CHLORIDE [1]: 99.67 MEQ/L
CHOLESTEROL [1]: 79.67 mg/dL
CREATINE PHOSPHOKINASE [1]: 585 u/L
CREATININE [1]: 0.22 mg/dL
GLUCOSE [1]: 135.67 mg/dL
LACTATE DEHYDROGENASE [1]: 171 u/L
LIPASE [1]: 9.5 u/L
PHOSPHORUS [1]: 11.18 mg/dL
POTASSIUM [1]: 6.25 MEQ/L
SODIUM [1]: 144.87 MEQ/L
TOTAL BILIRUBIN [1]: 0.2 mg/dL
TOTAL PROTEIN [1]: 6.08 G/DL
URIC ACID [1]: 0.65 mg/dL
ABSOLUTE BASOPHIL [2]: 0 CELLS/uL
ABSOLUTE EOSINOPHIL [2]: 14.5 CELLS/uL
ABSOLUTE LYMPHOCYTE [2]: 7596.17 CELLS/uL
ABSOLUTE MONOCYTE [2]: 69.67 CELLS/uL
ABSOLUTE SEGMENTED NEUTROPHIL [2]: 503 CELLS/uL
BASOPHIL [2]: 0%
EOSINOPHIL [2]: 0.17%
ERYTHROCYTE COUNT [2]: 5.49 x10E6/uL
HEMATOCRIT [2]: 34.72%
HEMOGLOBIN [2]: 13.47 G/DL
LEUKOCYTE COUNT [2]: 8.18 x10E3/uL
LYMPHOCYTE [2]: 92.17%
MEAN CORPUSCULAR HEMOGLOBIN [2]: 24.57 pg
MEAN CORPUSCULAR HEMOGLOBIN CONCENTRATION [2]: 38.82 G/DL
MEAN CORPUSCULAR VOLUME [2]: 63.3 fL
MONOCYTE [2]: 1%
NEUTROPHIL [2]: 6.67%
NUCLEATED RED BLOOD CELLS [2]: 0 /100WBC
PLATELET COUNT [2]: 1141 x10E3/uL
ALANINE AMINOTRANSFERASE [2]: 48.33 u/L
ALBUMIN [2]: 4.07 G/DL
ALKALINE PHOSPHATASE [2]: 395.67 u/L
ASPARTATE AMINOTRANSFERASE [2]: 85.67 u/L
BLOOD UREA NITROGEN [2]: 15.83 mg/dL
CARBON DIOXIDE [2]: 31.33 mmol/L
CHLORIDE [2]: 100.83 MEQ/L
CHOLESTEROL [2]: 62.33 mg/dL
CREATINE PHOSPHOKINASE [2]: 248.33 u/L
CREATININE [2]: 0.2 mg/dL
GLUCOSE [2]: 135.67 mg/dL
LACTATE DEHYDROGENASE [2]: 141.33 u/L
LIPASE [2]: 9.5 u/L
PHOSPHORUS [2]: 10.73 mg/dL
POTASSIUM [2]: 6.07 MEQ/L
SODIUM [2]: 145.35 MEQ/L
TOTAL BILIRUBIN [2]: 0.22 mg/dL
TOTAL PROTEIN [2]: 6.12 G/DL
URIC ACID [2]: 0.63 mg/dL
ABSOLUTE BASOPHIL [3]: 0 CELLS/uL
ABSOLUTE EOSINOPHIL [3]: 35.67 CELLS/uL
ABSOLUTE LYMPHOCYTE [3]: 7674 CELLS/uL
ABSOLUTE MONOCYTE [3]: 0 CELLS/uL
ABSOLUTE SEGMENTED NEUTROPHIL [3]: 690.33 CELLS/uL
BASOPHIL [3]: 0%
EOSINOPHIL [3]: 0.33%
ERYTHROCYTE COUNT [3]: 5.55 x10E6/uL
HEMATOCRIT [3]: 33.93%
HEMOGLOBIN [3]: 12.9 G/DL
LEUKOCYTE COUNT [3]: 8.4 x10E3/uL
LYMPHOCYTE [3]: 92%
MEAN CORPUSCULAR HEMOGLOBIN [3]: 23.3 pg
MEAN CORPUSCULAR HEMOGLOBIN CONCENTRATION [3]: 38.03 G/DL
MEAN CORPUSCULAR VOLUME [3]: 61.3 fL
MONOCYTE [3]: 0%
NEUTROPHIL [3]: 7.67%
NUCLEATED RED BLOOD CELLS [3]: 0.33 /100WBC
PLATELET COUNT [3]: 1023.67 x10E3/uL
ALANINE AMINOTRANSFERASE [3]: 49 u/L
ALBUMIN [3]: 4 G/DL
ALKALINE PHOSPHATASE [3]: 371 u/L
ASPARTATE AMINOTRANSFERASE [3]: 82.67 u/L
BLOOD UREA NITROGEN [3]: 11.67 mg/dL
CARBON DIOXIDE [3]: 34 mmol/L
CHLORIDE [3]: 99.33 MEQ/L
CHOLESTEROL [3]: 76.33 mg/dL
CREATINE PHOSPHOKINASE [3]: 380.33 u/L
CREATININE [3]: 0.29 mg/dL
GLUCOSE [3]: 141.67 mg/dL
LACTATE DEHYDROGENASE [3]: 138.33 u/L
LIPASE [3]: 12 u/L
PHOSPHORUS [3]: 10.8 mg/dL
POTASSIUM [3]: 5.77 MEQ/L
SODIUM [3]: 145.17 MEQ/L
TOTAL BILIRUBIN [3]: 0.1 mg/dL
TOTAL PROTEIN [3]: 5.83 G/DL
URIC ACID [3]: 0.57 mg/dL
